Data: ChEMBL document CHEMBL4507268 (2021)

What was measured:
Conditions in all cases: Compound concentration 1.0 uM
[1] = species on record: Homo sapiens
[2] = target: Phosphatidylinositol 4-phosphate 5-kinase type-1 gamma (Homo sapiens) (UniProt O60331)
[3] = target: T1, Activin receptor type-1B (Homo sapiens) (UniProt P36896)
T1 sequence (whole entry): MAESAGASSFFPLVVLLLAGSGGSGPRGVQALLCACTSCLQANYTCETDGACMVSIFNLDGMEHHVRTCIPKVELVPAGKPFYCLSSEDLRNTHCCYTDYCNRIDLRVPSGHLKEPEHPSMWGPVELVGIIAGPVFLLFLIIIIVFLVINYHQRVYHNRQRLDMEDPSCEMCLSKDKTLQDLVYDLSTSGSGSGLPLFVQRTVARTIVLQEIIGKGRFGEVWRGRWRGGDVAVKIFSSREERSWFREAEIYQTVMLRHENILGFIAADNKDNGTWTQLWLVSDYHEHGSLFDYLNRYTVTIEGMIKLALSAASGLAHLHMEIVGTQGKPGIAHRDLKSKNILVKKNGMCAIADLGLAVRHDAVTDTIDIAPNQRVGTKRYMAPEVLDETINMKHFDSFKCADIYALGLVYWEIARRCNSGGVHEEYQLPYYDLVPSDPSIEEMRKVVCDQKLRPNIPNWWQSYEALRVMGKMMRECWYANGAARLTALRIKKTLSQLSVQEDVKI

[4] = target: Calcium/calmodulin-dependent protein kinase kinase 2 (Homo sapiens) (UniProt Q96RR4)
Sequence of Calcium/calmodulin-dependent protein kinase kinase 2 (Homo sapiens) (Q96RR4 2-588 limits assumed): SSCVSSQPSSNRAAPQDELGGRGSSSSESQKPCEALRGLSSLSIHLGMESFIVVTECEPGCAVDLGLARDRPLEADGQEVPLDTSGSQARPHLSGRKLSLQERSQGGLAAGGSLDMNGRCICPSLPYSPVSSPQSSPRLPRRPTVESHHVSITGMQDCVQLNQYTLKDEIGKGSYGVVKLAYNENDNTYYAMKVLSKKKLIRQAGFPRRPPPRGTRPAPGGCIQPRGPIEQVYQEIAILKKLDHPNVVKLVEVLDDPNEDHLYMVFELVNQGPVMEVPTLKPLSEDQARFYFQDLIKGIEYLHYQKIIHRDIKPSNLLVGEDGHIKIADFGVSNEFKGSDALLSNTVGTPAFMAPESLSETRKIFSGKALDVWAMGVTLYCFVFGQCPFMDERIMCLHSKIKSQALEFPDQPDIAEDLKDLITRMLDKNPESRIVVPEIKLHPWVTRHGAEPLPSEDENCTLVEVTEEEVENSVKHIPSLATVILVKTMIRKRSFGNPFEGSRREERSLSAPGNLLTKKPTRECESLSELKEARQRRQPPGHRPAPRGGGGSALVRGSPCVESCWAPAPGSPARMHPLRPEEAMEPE

[5] = target: T2, Serine/threonine-protein kinase ICK (Homo sapiens) (UniProt Q9UPZ9)
T2 sequence (whole entry): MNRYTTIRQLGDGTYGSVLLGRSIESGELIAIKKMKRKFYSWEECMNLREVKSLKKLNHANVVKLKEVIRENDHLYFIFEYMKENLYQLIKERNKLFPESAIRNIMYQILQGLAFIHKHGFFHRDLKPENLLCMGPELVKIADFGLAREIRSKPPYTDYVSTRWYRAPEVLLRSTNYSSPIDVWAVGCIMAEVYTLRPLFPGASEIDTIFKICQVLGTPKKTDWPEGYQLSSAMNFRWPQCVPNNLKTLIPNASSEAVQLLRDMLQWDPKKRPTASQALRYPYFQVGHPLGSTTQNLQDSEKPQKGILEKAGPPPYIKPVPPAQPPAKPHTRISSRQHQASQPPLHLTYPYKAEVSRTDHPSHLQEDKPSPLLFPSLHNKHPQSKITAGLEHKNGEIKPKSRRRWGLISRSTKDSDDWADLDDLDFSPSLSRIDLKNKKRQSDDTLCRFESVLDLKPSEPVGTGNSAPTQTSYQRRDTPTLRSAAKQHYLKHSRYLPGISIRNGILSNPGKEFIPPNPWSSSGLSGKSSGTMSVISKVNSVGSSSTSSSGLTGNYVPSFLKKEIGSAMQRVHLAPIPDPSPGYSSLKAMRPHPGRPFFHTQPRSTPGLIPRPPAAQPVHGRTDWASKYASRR

[6] = target: T3, Tyrosine-protein kinase TXK (Homo sapiens) (UniProt P42681)
T3 sequence (whole entry): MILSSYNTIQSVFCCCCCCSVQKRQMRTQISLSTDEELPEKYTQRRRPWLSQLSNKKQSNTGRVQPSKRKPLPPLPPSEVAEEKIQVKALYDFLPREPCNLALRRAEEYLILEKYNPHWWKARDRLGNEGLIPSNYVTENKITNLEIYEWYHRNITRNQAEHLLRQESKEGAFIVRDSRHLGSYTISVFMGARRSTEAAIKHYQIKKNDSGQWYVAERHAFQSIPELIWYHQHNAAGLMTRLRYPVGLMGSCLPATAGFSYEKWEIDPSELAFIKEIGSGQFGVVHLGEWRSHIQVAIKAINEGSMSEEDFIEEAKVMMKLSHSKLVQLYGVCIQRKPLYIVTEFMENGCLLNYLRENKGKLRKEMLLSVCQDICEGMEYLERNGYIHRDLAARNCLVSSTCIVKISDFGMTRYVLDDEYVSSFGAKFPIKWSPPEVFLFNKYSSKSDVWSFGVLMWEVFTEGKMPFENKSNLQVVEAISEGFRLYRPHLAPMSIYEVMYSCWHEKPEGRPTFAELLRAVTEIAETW

[7] = target: T4, Serine/threonine-protein kinase D3 (Homo sapiens) (UniProt O94806)
T4 sequence (whole entry): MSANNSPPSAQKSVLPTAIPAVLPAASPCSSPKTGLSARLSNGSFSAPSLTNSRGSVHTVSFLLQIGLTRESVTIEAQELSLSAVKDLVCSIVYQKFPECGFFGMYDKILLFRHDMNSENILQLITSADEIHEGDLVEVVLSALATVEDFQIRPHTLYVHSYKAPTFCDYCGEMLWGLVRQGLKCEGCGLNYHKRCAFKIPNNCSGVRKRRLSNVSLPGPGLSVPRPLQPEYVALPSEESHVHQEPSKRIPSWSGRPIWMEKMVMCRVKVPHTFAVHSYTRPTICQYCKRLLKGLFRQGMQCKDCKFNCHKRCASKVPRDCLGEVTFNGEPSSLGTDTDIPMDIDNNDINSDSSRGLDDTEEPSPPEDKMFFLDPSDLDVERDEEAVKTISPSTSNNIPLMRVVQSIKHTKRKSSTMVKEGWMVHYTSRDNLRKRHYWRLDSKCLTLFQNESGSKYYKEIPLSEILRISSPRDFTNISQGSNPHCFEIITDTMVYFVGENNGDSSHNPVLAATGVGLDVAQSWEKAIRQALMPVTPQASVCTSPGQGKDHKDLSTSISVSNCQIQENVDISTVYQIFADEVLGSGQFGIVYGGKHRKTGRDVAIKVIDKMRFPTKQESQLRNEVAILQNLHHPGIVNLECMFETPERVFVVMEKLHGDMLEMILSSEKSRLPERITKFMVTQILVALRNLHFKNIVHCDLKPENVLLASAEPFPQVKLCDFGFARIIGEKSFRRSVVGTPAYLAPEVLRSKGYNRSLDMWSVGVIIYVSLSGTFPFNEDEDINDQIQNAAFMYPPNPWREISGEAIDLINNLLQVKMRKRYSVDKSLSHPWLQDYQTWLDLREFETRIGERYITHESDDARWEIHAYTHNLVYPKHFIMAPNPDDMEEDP

[8] = target: Serine/threonine-protein kinase MRCK alpha (Homo sapiens) (UniProt Q5VT25)
Sequence of Serine/threonine-protein kinase MRCK alpha (Homo sapiens) (Q5VT25 whole entry): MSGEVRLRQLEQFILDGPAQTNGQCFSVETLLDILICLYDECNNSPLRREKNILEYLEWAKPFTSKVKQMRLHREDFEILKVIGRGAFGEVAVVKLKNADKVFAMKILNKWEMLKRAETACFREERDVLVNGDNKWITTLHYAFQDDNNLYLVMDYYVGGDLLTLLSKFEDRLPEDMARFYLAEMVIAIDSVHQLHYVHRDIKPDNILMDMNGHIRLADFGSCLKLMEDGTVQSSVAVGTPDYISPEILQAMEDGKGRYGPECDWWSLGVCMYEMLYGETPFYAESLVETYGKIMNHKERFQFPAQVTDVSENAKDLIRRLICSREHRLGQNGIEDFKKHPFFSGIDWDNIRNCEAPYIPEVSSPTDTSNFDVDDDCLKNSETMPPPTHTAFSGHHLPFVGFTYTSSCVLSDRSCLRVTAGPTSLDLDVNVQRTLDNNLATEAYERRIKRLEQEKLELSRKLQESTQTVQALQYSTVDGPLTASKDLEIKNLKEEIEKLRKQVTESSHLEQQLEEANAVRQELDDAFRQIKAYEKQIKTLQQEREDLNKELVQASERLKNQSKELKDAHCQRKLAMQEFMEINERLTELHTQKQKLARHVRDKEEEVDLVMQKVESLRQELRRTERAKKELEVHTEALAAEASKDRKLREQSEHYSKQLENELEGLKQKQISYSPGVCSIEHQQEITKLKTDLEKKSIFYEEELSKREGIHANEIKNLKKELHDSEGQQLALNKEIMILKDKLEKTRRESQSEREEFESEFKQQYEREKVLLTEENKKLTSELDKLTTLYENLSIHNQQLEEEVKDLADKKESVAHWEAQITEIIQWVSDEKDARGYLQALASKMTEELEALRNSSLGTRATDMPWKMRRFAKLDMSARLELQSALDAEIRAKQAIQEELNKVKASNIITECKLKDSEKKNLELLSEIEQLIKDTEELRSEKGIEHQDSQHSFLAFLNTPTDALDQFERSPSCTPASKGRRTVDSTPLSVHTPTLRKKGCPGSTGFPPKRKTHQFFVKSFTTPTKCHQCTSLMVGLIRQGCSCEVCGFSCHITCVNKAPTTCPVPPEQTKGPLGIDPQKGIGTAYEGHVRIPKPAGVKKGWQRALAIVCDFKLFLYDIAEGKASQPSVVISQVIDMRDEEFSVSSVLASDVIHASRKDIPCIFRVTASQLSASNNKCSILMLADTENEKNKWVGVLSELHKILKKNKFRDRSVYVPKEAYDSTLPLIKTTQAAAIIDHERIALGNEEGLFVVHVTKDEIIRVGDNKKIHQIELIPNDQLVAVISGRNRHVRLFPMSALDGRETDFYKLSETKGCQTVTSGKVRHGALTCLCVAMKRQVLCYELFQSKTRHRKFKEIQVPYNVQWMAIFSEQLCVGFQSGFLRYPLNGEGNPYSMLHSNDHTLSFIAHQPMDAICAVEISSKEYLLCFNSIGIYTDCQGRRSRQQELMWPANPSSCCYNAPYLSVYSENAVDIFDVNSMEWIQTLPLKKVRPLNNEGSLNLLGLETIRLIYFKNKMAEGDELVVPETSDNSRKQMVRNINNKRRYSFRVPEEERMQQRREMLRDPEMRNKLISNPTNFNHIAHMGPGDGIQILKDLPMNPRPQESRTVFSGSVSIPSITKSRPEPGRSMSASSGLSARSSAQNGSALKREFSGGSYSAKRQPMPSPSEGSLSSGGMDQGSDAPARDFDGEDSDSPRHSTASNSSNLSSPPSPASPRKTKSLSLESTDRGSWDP

[9] = target: Serine/threonine-protein kinase Chk2 (Homo sapiens) (UniProt O96017)
Sequence of Serine/threonine-protein kinase Chk2 (Homo sapiens) (O96017 whole entry): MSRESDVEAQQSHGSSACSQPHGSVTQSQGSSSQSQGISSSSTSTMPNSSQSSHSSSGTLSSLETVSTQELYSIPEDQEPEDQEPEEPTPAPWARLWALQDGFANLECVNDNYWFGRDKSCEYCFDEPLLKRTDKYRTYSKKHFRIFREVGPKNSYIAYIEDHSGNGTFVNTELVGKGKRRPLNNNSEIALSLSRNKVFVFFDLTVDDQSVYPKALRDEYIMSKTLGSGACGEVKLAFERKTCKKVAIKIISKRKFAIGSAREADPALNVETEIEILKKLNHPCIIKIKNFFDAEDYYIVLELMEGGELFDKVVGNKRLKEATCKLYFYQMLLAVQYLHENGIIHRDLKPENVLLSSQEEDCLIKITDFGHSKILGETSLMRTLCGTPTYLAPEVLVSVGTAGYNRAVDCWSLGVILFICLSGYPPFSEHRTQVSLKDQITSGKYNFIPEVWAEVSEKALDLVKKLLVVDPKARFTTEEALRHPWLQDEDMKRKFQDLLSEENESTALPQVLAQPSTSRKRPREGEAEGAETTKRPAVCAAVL

Measured: % residual kinase activity

Sequence of Phosphatidylinositol 4-phosphate 5-kinase type-1 gamma (Homo sapiens) (O60331 whole entry): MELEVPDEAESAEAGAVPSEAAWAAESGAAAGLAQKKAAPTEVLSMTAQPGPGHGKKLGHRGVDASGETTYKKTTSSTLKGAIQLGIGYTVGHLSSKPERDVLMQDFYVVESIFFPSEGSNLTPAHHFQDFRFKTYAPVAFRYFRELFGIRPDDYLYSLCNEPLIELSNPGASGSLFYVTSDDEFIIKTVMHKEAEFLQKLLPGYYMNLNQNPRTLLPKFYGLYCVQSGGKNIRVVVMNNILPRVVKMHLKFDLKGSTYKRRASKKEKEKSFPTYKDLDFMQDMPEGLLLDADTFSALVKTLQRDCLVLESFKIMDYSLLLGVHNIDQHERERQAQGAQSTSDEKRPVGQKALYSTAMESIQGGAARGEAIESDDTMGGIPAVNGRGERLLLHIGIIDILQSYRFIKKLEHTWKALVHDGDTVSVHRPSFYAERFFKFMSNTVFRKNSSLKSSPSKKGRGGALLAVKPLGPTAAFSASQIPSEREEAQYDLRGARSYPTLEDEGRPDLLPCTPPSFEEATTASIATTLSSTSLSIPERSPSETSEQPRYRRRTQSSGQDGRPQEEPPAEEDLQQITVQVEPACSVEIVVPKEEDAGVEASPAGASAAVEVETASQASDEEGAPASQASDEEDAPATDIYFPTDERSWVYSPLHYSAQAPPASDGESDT

CN1CCN(c2cnc3c(C4CCN(C(=O)c5ccc(OC(F)(F)F)cc5N)CC4)ncnc3c2)CC1 [BAY-885]
inactive: [1] 107% | [2] 93% | [3] 98% | [4] 102% | [5] 93% | [6] 99% | [7] 100% | [8] 111% | [9] 92%
